Results on 12 compounds are retold here after patent US12624039B2, “BTK inhibitors” (DIZAL (JIANGSU) PHARMACEUTICAL CO., LTD., priority 2020, dated 2026).

The target in one series is T1, Recombinant BTK(C481S) (Homo sapiens, UniProt Q06187, C481S).
T1 construct: purchased SignalChem
The series can be described thus: BTK C481S HTRF kinase assay. In kind it is biochemical. Particulars: 30 min pre-incubation, 120 min reaction. The method, then:
[The procedure below names another variant; the source lists this variant under the same test.] Recombinant BTK wild type (BTK WT) was purchased from Thermo fisher.
In brief, recombinant kinases were pre-incubated in the presence or absence of compound at room temperature for 30 minutes. The reaction was initiated by the addition of the ATP and substrate peptide which could be phosphorylated by kinases in the reaction. After 120 minutes incubation, the reaction was stopped by the addition of the detection reagent mix containing EDTA.
For orientation: Time-resolved FRET reads energy transfer from a long-lived donor to a nearby acceptor.

The target in series [1] is T2, BTK(WT) in HEK293-BTK(WT) cells (Homo sapiens, UniProt Q06187).
T2 construct: Full-length cDNAs of BTK containing C481S mutation was generated by mutagenesis; expressed in transfected cells
Briefly: HEK293-BTK(WT) p-BTK ELISA. In kind it is cell-based. Particulars: 1.5 hour. The method, then: (§1) The mutated BTK cDNAs were confirmed by sequencing. […] The transfected cells were selected in 2 μg/mL of puromycin. Stable polyclonal cell lines were confirmed by WB and used for further study. […] All the cells were maintained in a humidified incubator at 37° C. with 5% CO2.
(§2) The test compounds were added to the cells and cells were incubated for 1.5 hour at 37° C., 5% CO2. […] The plate was read on a Multiscan Spectrum reader set to 450 nm wavelengths. The data were processed in Graph Pad Prism software.
(ELISA stands for enzyme-linked immunosorbent assay.)

Series [2] deals with T3, BTK-C481S in HEK293-BTK(C481S) cells (Homo sapiens, UniProt Q06187, C481S).
T3 construct: Full-length cDNAs of BTK containing C481S mutation was generated by mutagenesis; expressed in transfected cells
T3 sequence (Q06187 whole entry C481S): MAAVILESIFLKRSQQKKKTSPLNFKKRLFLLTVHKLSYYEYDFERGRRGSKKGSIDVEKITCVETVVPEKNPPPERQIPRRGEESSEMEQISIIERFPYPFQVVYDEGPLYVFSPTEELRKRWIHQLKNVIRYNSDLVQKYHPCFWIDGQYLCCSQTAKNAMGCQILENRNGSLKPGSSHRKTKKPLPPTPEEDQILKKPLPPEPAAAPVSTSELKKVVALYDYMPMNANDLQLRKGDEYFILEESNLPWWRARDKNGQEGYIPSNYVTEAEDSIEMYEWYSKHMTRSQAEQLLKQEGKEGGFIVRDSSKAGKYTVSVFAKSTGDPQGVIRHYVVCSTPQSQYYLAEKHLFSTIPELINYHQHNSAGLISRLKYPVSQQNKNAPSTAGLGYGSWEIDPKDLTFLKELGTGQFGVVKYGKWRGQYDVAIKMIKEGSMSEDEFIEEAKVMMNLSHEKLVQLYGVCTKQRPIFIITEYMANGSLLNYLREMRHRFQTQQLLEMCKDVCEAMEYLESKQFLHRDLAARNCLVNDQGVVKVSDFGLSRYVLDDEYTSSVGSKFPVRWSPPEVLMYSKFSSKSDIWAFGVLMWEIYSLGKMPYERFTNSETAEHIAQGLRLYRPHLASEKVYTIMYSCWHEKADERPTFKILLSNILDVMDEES
Briefly: HEK293-BTK(C481S) p-BTK ELISA. In kind it is cell-based. As to conditions: 1.5 hour. The method, then: as §1, §2

The subject of another series is TMD-8 cells. The series can be described thus: TMD-8 anti-proliferation assay. The class given is cell-based. The method, then: TMD-8 Anti-Proliferation Assay
TMD-8 cells were prepared in RPMI1640 media containing 10% foetal bovine, and plated in 384 well plates at 1500 cells per well, The cells were incubated overnight at 37° C., 5% CO2. After incubation, compounds with different concentration were added to the assay plates and incubate cells for a further 72 hours at 37° C., 5% CO2. Following 72 hours incubation, 15 μl of CellTiter 96® AQueous One Solution Reagent was added to each well and the plates incubated at room temperature for 30 mins. Cell viability was determined using the CellTiter-Glo (Promega, USA). The CellTiter-Glo assay was performed according to the manufacturer's instructions, and luminescence was determined in a multi-label reader (Envision, PerkinElmer, USA). The data were processed in XLfit software.

Series [3] can be described thus: Log D determination (octanol/phosphate buffer). Particulars: 25° C. In kind it is physicochemical. The method, then:
10 μL of working solution of each cassette is placed in order into respective 96-well rack position (Log D plate). Add 500 μL of saturated octanol into each vial of the above cap-less Log D plate followed by the addition of 500 μL of saturated phosphate buffer. Seal with a moulded PTFE/SIL 96-Well Plate Cover.
The samples are centrifuged at 4,000 rpm at 25° C. for 30 minutes to separate the phases. Pipette and syringe are used to pipette about 100 μL from the octanol and buffer phases to a new 96-well plate, respectively.
5 μL of octanol sample is transferred to a new 96-well plate, followed by addition of 495 μL of a mixture of H2O and acetonitrile containing internal standard (1:1) as 100 fold octanol samples. Vortex for 5 minutes at 1,000 rpm.
50 μL of 100 fold samples are transferred to new 96-well plate, followed by addition of 450 μL of a mixture of H2O and acetonitrile containing internal standard (1:1) as 1,000 fold octanol samples. Vortex for 5 minutes at 1,000 rpm.
The 1,000 folds octanol samples are serially diluted into 10,000, 100,000 and 1,000,000 folds with a mixture of H2O and acetonitrile containing internal standard (1:1).
50 μL of buffer samples are transferred to new 96-well plate, followed by addition of 450 μL of a mixture of H2O and acetonitrile containing internal standard (1:1) as 10 folds buffer samples. Vortex for 5 minutes at 1,000 rpm.
The 10 folds buffer samples are serially diluted into 100, 1,000 and 10,000 folds with a mixture of H2O and acetonitrile containing internal standard (1:1). The samples are evaluated by LC/MS/MS analysis. All compounds are tested in singlicate.
All calculations are carried out using Microsoft Excel. The concentrations of test compound in octanol/buffer solution are evaluated by LC/MS/MS. Calculate the Log D value of the test compound as follows:
[formula] DF means the dilution factor. Procedure for Protein Binding Measurements in Human Plasma by Using Equilibrium Dialysis

A short description of a further series: Hu Mic Clint. The class given is in vitro ADME, human. As to conditions: for microsomal CLint: human, microsomes.
Series [4] can be described thus: Short oral absorption (SOA) assay in rats, brain penetration. The class given is in vivo. As to conditions: rat; for Kp: brain, AUCbrain/AUCplasma. The method, then: Short Oral Absorption (SOA) Assay in Rats.
(§3) A Short oral absorption (SOA) model is an in-vivo screening model to identify brain penetration of a compound. To evaluate the potential of a compound to cross the blood-brain barrier in rats, total brain-to-plasma ratio (Kp,brain) was measured AUCbrain/AUCplasma. CSF-to-plasma ratio (Kp,CSF) was determined by either AUCCSF/AUCplasma or the average of CSF-to-plasma ratios at available time points after oral administration, respectively. Free fractions of in biological matrix were determined by in vitro plasma and brain binding assay in a separate study. Kp,uu,brain and Kp,uu,CSF were calculated by the following equations: (1) Kp,uu,brain=Kp, brain×fu,brain/fu,plasma; (2) Kp,uu,CSF=Kp,CSF/fu,plasma.

Series [5] in a line: In vitro plasma and brain binding assay (free fractions). The class given is in vitro ADME, rat. The method, then: as §3
Setting [6] is: Kp,CSF/fu,plasma, read-out: Kp, uu CSF.
[7] abbreviates: Kp,brain×fu,brain/fu,plasma, read-out: Kp, uu brain.
Setting [8] is: rat brain free fraction, read-out: Rat fu, br (%).
[9] abbreviates: rat plasma free fraction, read-out: Rat fu, pl (%).

Like-named read-outs stand apart in the source and are kept apart here.

T1 sequence (Q06187 whole entry C481S): as above

As for `Nc1nccn2c(C3CCC(CO)OC3)nc(-c3ccc(Oc4ccccc4)cc3F)c12` (single isomer, unassigned) [Compound 2, Trans-(5-(8-amino-1-(2-fluoro-4-phenoxyphenyl)imidazo[1,5-a]pyrazin-3-yl)tetrahydro-2H-pyran-2-yl)methanol], the IC50 (as a rule, the concentration that inhibits the measured activity by half) at Recombinant BTK(C481S) was 0.66 nM; in series [1], 27.3 nM; in series [2], 70.6 nM; with TMD-8 cells (72 hours), 22.7 nM. For the same compound, the logD (commonly the decadic logarithm of the distribution of all forms, ionised or not, between an organic phase and buffer at a given pH) at 2 h in series [3] was found to be 3.01. For the same compound, in the series “Hu Mic Clint”, the microsomal CLint (in general, a measure of how fast metabolising enzymes remove a compound, apart from limits set by blood flow) is 12.7 µL/min/mg. In addition, the Kp – broadly, tissue or fluid exposure divided by exposure in the circulation – in series [4] was determined as 1.35. Also, the results for the Kp uu in series [4] (setting [6]) and in series [4] (setting [7]) were 0.86 and 1.19, respectively. Further, the fraction unbound in series [5] (setting [8]) stood at 0.033; in series [5] (setting [9]), 0.038.

Take `Nc1nccn2c(C3CCC(CO)OC3)nc(-c3ccc(Oc4ccccc4)cc3F)c12` (single isomer, unassigned) [Compound 3, Trans-(5-(8-amino-1-(2-fluoro-4-phenoxyphenyl)imidazo[1,5-a]pyrazin-3-yl)tetrahydro-2H-pyran-2-yl)methanol]: the IC50 on Recombinant BTK(C481S) was 6.59 nM; in the series with TMD-8 cells (72 hours) it was 106 nM. The same compound displayed a logD in series [3] of 2.88. Moreover, the “Hu Mic Clint” value in the series “Hu Mic Clint” stood at 23.7 µL/min/mg.

Take `Nc1nccn2c(C3CCC(CO)OC3)nc(-c3ccc(Oc4ccccc4)c(F)c3F)c12` (single isomer, unassigned) [Compound 4, (5-(8-amino-1-(2,3-difluoro-4-phenoxyphenyl)imidazo[1,5-a]pyrazin-3-yl)tetrahydro-2H-pyran-2-yl)methanol]: the IC50 at Recombinant BTK(C481S) worked out at 0.61 nM; in series [1], 18.8 nM; in series [2], 84.2 nM; in the series on TMD-8 cells (72 hours), 16.2 nM. The same compound came in with a logD at 2 h in series [3] of 3.1. Also, the intrinsic metabolic clearance (microsomal CLint) in the series “Hu Mic Clint” is 7.44 µL/min/mg.

Consider `Nc1nccn2c(C3CCC(CO)OC3)nc(-c3ccc(Oc4ccccc4)c(F)c3F)c12` (single isomer, unassigned) [Compound 5, (5-(8-amino-1-(2,3-difluoro-4-phenoxyphenyl)imidazo[1,5-a]pyrazin-3-yl)tetrahydro-2H-pyran-2-yl)methanol], for which the IC50 at Recombinant BTK(C481S) is 5.42 nM; in the series on TMD-8 cells (72 hours), 102 nM. Besides, the log distribution coefficient (logD) in series [3] was found to be 2.89. Further, in the series “Hu Mic Clint”, the “Hu Mic Clint” value was found to be 13.0 µL/min/mg.

Take `Nc1nccn2c(C3CCC(CO)OC3)nc(-c3ccc(Oc4cccc(F)c4F)cc3)c12` (single isomer, unassigned) [Compound 6, (5-(8-amino-1-(4-(2,3-difluorophenoxy)phenyl)imidazo[1,5-a]pyrazin-3-yl)tetrahydro-2H-pyran-2-yl)methanol]: the IC50 was determined as 0.42 nM on Recombinant BTK(C481S), 33.4 nM in series [1], 75.4 nM in series [2] and 27.4 nM in the series with TMD-8 cells (72 hours). The compound further came in with a logD at 2 h in series [3] of 3.28. In addition, the microsomal CLint in the series “Hu Mic Clint” is 8.8 µL/min/mg.

For `Nc1nccn2c(C3CCC(CO)OC3)nc(-c3ccc(Oc4cccc(F)c4F)cc3)c12` (single isomer, unassigned) [Compound 7, (5-(8-amino-1-(4-(2,3-difluorophenoxy)phenyl)imidazo[1,5-a]pyrazin-3-yl)tetrahydro-2H-pyran-2-yl)methanol], the IC50 worked out at 1.53 nM on Recombinant BTK(C481S) and 219 nM with TMD-8 cells (72 hours). Further, the pH-dependent lipophilicity (logD) in series [3] is reported as 3.19. In “Hu Mic Clint”, the “Hu Mic Clint” value came out at 13.3 µL/min/mg.

Turning to `Nc1ncnn2c(C3CCC(CO)OC3)nc(-c3ccc(Oc4ccccc4)cc3F)c12` (single isomer, unassigned) [Compound 8, (5-(4-amino-5-(2-fluoro-4-phenoxyphenyl)imidazo[5,1-f][1,2,4]triazin-7-yl)tetrahydro-2H-pyran-2-yl)methanol], the 50% inhibitory concentration (IC50) on Recombinant BTK(C481S) worked out at 2.8 nM; with TMD-8 cells (72 hours) it was 77 nM. In series [3], the pH-dependent lipophilicity (logD) at 2 h stood at 3.1. In “Hu Mic Clint”, the “Hu Mic Clint” value came to 41.3 µL/min/mg.

For `Nc1ncnn2c(C3CCC(CO)OC3)nc(-c3ccc(Oc4ccccc4)cc3F)c12` (single isomer, unassigned) [Compound 9, (5-(4-amino-5-(2-fluoro-4-phenoxyphenyl)imidazo[1,5-a][1,2,4]triazin-7-yl)tetrahydro-2H-pyran-2-yl)methanol], the figures for the IC50 on Recombinant BTK(C481S) and in the series on TMD-8 cells (72 hours) were 6.42 nM and 160 nM, respectively. In series [3], the logD turned out to be 3.00. In addition, the “Hu Mic Clint” value in the series “Hu Mic Clint” is 34.3 µL/min/mg.

`Nc1ncnn2c(C3CCC(CO)OC3)nc(-c3ccc(Oc4ccccc4)cc3F)c12` (single isomer, unassigned) [Compound 11, Trans-(5-(4-amino-5-(2-fluoro-4-phenoxyphenyl)imidazo[5,1-f][1,2,4]triazin-7-yl)tetrahydro-2H-pyran-2-yl)methanol]: the IC50 at Recombinant BTK(C481S) is 5.03 nM; in the series with TMD-8 cells (72 hours), 70.9 nM. For the same compound, in series [3], the logD is on record as 3.09. For the same compound, the “Hu Mic Clint” value in the series “Hu Mic Clint” was 9.3 µL/min/mg.

Consider `Nc1nccn2c(C3CCC(CO)OC3)nc(-c3ccc(Oc4ccccc4)cc3)c12` (stereo not drawn) [Compound 1, (5-(8-amino-1-(4-phenoxyphenyl)imidazo[1,5-a]pyrazin-3-yl)tetrahydro-2H-pyran-2-yl)methanol], for which the half-maximal inhibitory concentration (IC50) stood at 1.06 nM on Recombinant BTK(C481S) and 24.2 nM in the series with TMD-8 cells (Homo sapiens, TMD8, 72 h). Besides, the logD at 2 h in series [3] is 3.14. The compound further displayed an intrinsic metabolic clearance (microsomal CLint) in the series “Hu Mic Clint” of 44.9 µL/min/mg.

On to `Nc1ncnn2c(C3CCC(CO)OC3)nc(-c3ccc(Oc4ccccc4)c(F)c3F)c12` (stereo not drawn) [Compound 12, (5-(4-amino-5-(2,3-difluoro-4-phenoxyphenyl)imidazo[1,5-f][1,2,4]triazin-7-yl)tetrahydro-2H-pyran-2-yl)methanol], for which the IC50 is 0.27 nM on Recombinant BTK(C481S), 17.6 nM in series [1] and 46.8 nM in series [2]. Also, the logD at 2 h in series [3] is 3.18. Besides, in the series “Hu Mic Clint”, the microsomal CLint was below 3 µL/min/mg.

With `Nc1ncnn2c(C3CCC(CO)OC3)nc(-c3ccc(Oc4cccc(F)c4F)cc3)c12` (stereo not drawn) [Compound 14, (5-(4-amino-5-(4-(2,3-difluorophenoxy)phenyl)imidazo[5,1-f][1,2,4]triazin-7-yl)tetrahydro-2H-pyran-2-yl)methanol], the values for the IC50 (at Recombinant BTK(C481S); in series [1]; in series [2]) were 0.86 nM, 16 nM and 36.3 nM, respectively. The log distribution coefficient (logD) at 2 h in series [3] came to 3.29. In “Hu Mic Clint”, this compound gave a microsomal CLint below 3 µL/min/mg. In series [4], this compound came in with a Kp of 0.32. The results for the Kp uu in series [4] (setting [6]) and in series [4] (setting [7]) were 0.59 and 0.23, respectively. Moreover, the figures for the fraction unbound in series [5] (setting [8]) and in series [5] (setting [9]) were 0.015 and 0.02, respectively.
